Experimental data from patent publication US20100222217A1, “Fungicidal N-[2-(Haloalkoxy)Phenyl]Heteroarylcarboxamides” (priority 2005, published 2010).

Test system: Alternaria solani
Assay: Activity against early blight on tomatoes caused by Alternaria solani
Format: in vivo
Conditions: 250 ppm, tomato plants, protective spray, assessed after 5 days; untreated plants 90% infected
Description: The active compounds were separately or jointly prepared as a stock solution comprising 25 mg of active compound which was made up to 10 ml using a mixture of acetone and/or dimethylsulfoxide and the emulsifier Uniperol® EL (wetting agent having emulsifying and dispersing action based on ethoxylated alkylphenols) in a volume ratio of solvent/emulsifier of 99 to 1. The mixture was then made up with water to 100 ml. This stock solution was diluted with the solvent/emulsifier/water mixture described to the desired concentration of active compounds.
Leaves of potted tomato plants of the cultivar “Goldene Königin” were sprayed to runoff point with an aqueous suspension having the concentration of active compounds stated below. The next day, the leaves were infected with an aqueous spore suspension of Alternaria solani in a 2% biomalt solution having a density of 0.17×10^6 spores/ml. The plants were then placed in a water vapor-saturated chamber at temperatures between 20 and 22° C. After 5 days, the disease on the untreated, but infected control plants had developed to such an extent that the infection could be determined visually in %.

Row | SMILES | infection
1 | Cc1nn(C)cc1C(=O)Nc1ccccc1OC(F)(F)C(F)F [N-[2-(1,1,2,2-tetrafluoroethoxy)phenyl]-1,3-dimethylpyrazol-4-yl-carboxamide] | 60%

Test system: Erysiphe [syn. Blumeria] graminis forma specialis. tritici
Assay: Activity against mildew of wheat caused by Erysiphe [syn. Blumeria] graminis forma specialis. tritici
Format: in vivo
Conditions: 63 ppm, wheat seedlings, protective spray, assessed after 7 days; untreated plants 90% infected
Description: The active compounds were separately or jointly prepared as a stock solution comprising 25 mg of active compound which was made up to 10 ml using a mixture of acetone and/or dimethylsulfoxide and the emulsifier Uniperol® EL (wetting agent having emulsifying and dispersing action based on ethoxylated alkylphenols) in a volume ratio of solvent/emulsifier of 99 to 1. The mixture was then made up with water to 100 ml. This stock solution was diluted with the solvent/emulsifier/water mixture described to the desired concentration of active compounds. Leaves of potted wheat seedlings were sprayed to runoff point with an aqueous suspension having the active compound concentration stated below. The suspension was prepared as described above. 24 hours after the spray coating had dried on, the plants were dusted with spores of mildew of wheat (Erysiphe [syn. Blumeria] graminis forma specialis. tritici). The test plants were then placed in a greenhouse at temperatures between 20 and 24° C. and at 60 to 90% relative atmospheric humidity. After 7 days, the extent of the mildew development was determined visually in % infection of the entire leaf area.

Row | SMILES | infection
2 | Cn1cc(C(=O)Nc2ccccc2OC(F)(F)C(F)F)c(C(F)(F)F)n1 [N-[2-(1,1,2,2-tetrafluoroethoxy)phenyl]-3-trifluormethyl-1-methylpyrazol-4-yl-carboxamide] | 70%

Same assay, conditions: 250 ppm, wheat seedlings, protective spray, assessed after 7 days; untreated plants 80% infected

Row | SMILES | infection
3 | Cn1cc(C(=O)Nc2ccccc2OC(F)(F)C(F)F)c(C(F)(F)F)n1 [N-[2-(1,1,2,2-tetrafluoroethoxy)phenyl]-3-trifluormethyl-1-methylpyrazol-4-yl-carboxamide] | 40%

Test system: not given
Assay: not given
Conditions: not given

Row | SMILES | melting point
4 | Cc1nc(C(F)(F)F)c(C(=O)Nc2ccccc2OC(F)(F)C(F)F)s1 [Compound I-6, N-[2-(1,1,2,2-tetrafluoroethoxy)phenyl]-2-methyl-4-trifluoromethylthiazol-5-yl-carboxamide] | 118 to 120 °C
5 | Cc1nc(C(F)(F)F)c(C(=O)Nc2ccccc2OC(F)(F)C(F)C(F)(F)F)s1 (stereo not drawn) [Compound I-8, N-[2-(1,1,2,3,3,3-hexafluoropropoxy)phenyl]-2-methyl-4-trifluoromethylthiazole-5-carboxamide] | 70 to 71 °C
6 | Cn1cc(C(=O)Nc2ccccc2OC(F)(F)C(F)F)c(C(F)F)n1 [Compound I-5, N-[2-(1,1,2,2-tetrafluoroethoxy)phenyl]-3-difluoromethyl-1-methyl-1H-pyrazole-4-carboxamide] | 117 to 119 °C
7 | Cn1cc(C(=O)Nc2ccccc2OC(F)(F)C(F)C(F)(F)F)c(C(F)(F)F)n1 (stereo not drawn) [Compound I-1, N-[2-(1,1,2,3,3,3-Hexafluoropropoxy)phenyl]-1-methyl-3-trifluoromethyl-1H-pyrazole-4-carboxamide] | 91 to 93 °C
8 | Cn1cc(C(=O)Nc2ccccc2OC(F)(F)C(F)Cl)c(C(F)F)n1 (stereo not drawn) [Compound I-4, N-[2-(2-chloro-1,1,2-trifluoroethoxy)phenyl]-3-difluoromethyl-1-methyl-1H-pyrazole-4-carboxamide] | 110 to 111 °C
9 | Cn1cc(C(=O)Nc2ccccc2OC(F)(F)C(F)Cl)c(C(F)(F)F)n1 (stereo not drawn) [Compound I-3, N-[2-(2-Chloro-1,1,2-trifluoroethoxy)phenyl]-1-methyl-3-trifluoromethyl-1H-pyrazole-4-carboxamide] | 94 to 95 °C
10 | Cc1nc(C)c(C(=O)Nc2ccccc2OC(F)(F)C(F)F)s1 [Compound I-7, N-[2-(1,1,2,2-tetrafluoroethoxy)phenyl]-2,4-dimethylthiazol-5-ylcarboxamide] | 134 to 135 °C

More lines, now with the values ahead:

Row | melting point | SMILES
11 | 126 to 128 °C | O=C(Nc1ccccc1OC(F)(F)C(F)F)c1cccnc1Cl [Compound I-12, N-[2-(1,1,2,2-tetrafluoroethoxy)phenyl]-2-chloronicotinamide]
12 | 89 to 92 °C | Cc1nc(C(F)F)c(C(=O)Nc2ccccc2OC(F)(F)C(F)C(F)(F)F)s1 (stereo not drawn) [Compound I-11, N-[2-(1,1,2,3,3,3-hexafluoropropoxy)phenyl]-4-difluoromethyl-2-methylthiazole-5-carboxamide]
13 | 85 to 91 °C | O=C(Nc1ccccc1OC(F)(F)C(F)C(F)(F)F)c1cccnc1Cl (stereo not drawn) [Compound I-13, N-[2-(1,1,2,3,3,3-hexafluoropropoxy)phenyl]-2-chloronicotinamide]
14 | 73 to 76 °C | O=C(Nc1ccccc1OC(F)(F)C(F)Cl)c1cccnc1Cl (stereo not drawn) [Compound I-14, N-[2-(2-chloro-1,1,2-trifluoroethoxy)phenyl]-2-chloronicotinamide]
15 | 80 to 81 °C | Cc1nc(C(F)(F)F)c(C(=O)Nc2ccccc2OC(F)(F)C(F)Cl)s1 (stereo not drawn) [Compound I-9, N-[2-(2-chloro-1,1,2-trifluoroethoxy)phenyl]-2-methyl-4-trifluoromethylthiazole-5-carboxamide]
